This note sets out measurements from US11225481B2 (Centre national de la recherche scientifique, priority 2015, dated 2022).

Like-named read-outs stand apart in the source and are kept apart here. Some results are limits rather than exact numbers.

One assay deals with T1, BRD4(BD1) (Homo sapiens, UniProt O60885).
T1 construct: a BRD4(BD1) synthetic gene that includes a TEV cleavage site was purchased from LifeTechnology; made in house
In words: HTRF assay, disruption of bromodomain/histone peptide interaction. In kind it is binding. In a few lines:
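GST-tagged BRD4(BD1) mixed with histone peptide, then HTRF donor/acceptor added, in the presence of compound (1% final DMSO) and incubated overnight at room temperature. Read at 337 nm excitation, 665/620 nm emission ratio. Percent inhibition set against DMSO vehicle (max) and no-peptide (min) signals; IC50 measured in triplicate.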
In general terms: In TR-FRET formats the signal depends on donor and acceptor labels being close together.

In the next assay the target is T2, BRD2(BD2) (Homo sapiens, UniProt P25440).
T2 construct: purchased BPS Bioscience
Description: HTRF bromodomain selectivity profile. It counts as binding. Particulars: Table 3 selectivity profile. How it is done:
(§1) HTRF assays were performed in white 384 Well Small Volume™ HiBase Polystyrene Microplates (Greiner) with a total working volume of 20 μL. Compounds were dispensed, with 200 nL per well (1% final DMSO), from a concentration stock of 1 mM in 100% DMSO and with serial DMSO dilutions, using a Mosquito Crystal pipetting robot platform (TTP labtech). The IC50 measurements were performed in triplicates (Table 2 and 3). All HTRF reagents were purchased from CisBio Bioassays and reconstituted according to the supplier protocols. For each assay 14.7 μL of mix 1 (protein+peptide) is added in the assay wells, containing previously dispensed inhibitors, according to the final concentration and buffer described in Table 4, using a Biomek NX MC pipetting robot (Beckman). Then, 5.1 μL of mix 2 (donnor+acceptor) is added. HTRF signals were measured, after a final incubation (overnight at room temperature), using a PHERAstar FS (BMG Labtech) with an excitation filter at 337 nm and fluorescence wavelength measurement at 620 and 665 nm, an integration delay of 60 μs and an integration time of 500 μs. Results were analyzed with a two-wavelengths signal ratio: [intensity (665 nm)/intensity (620 nm)]*10^4. Percentage of inhibition was calculated using the following equation: % inhibition=[(compound signal)−(min signal)]/[(max signal)−(min signal)]*100, where ‘max signal’ is the signal ratio with the compound vehicle alone (DMSO) and ‘min signal’ the signal ratio without peptide.
(§2) Selectivity profiles of bromodomain inhibitors were performed as described in HTRF screen section. […] HTRF detection reagents (EPIgeneous™ Binding Domain kits) were purchased from Cisbio Bioassays and used according to supplier's protocol. GST tagged bromodomain proteins were purchased from BPS Bioscience and histone peptide from Anaspec.

Another assay addresses T3, BRD4(BD2) (Homo sapiens, UniProt O60885).
T3 construct: purchased BPS Bioscience
In words: HTRF bromodomain selectivity profile. In kind it is binding. Particulars: Table 3 selectivity profile. How it is done: as §1, §2

For another assay, the target named is T4, BRDT(BD1) (Homo sapiens, UniProt Q58F21).
T4 construct: purchased BPS Bioscience
In words: HTRF bromodomain selectivity profile. In kind it is binding. Particulars: Table 3 selectivity profile. How it is done:
as §1, §2

The next assay concerns the target T5, BRD2(BD1) (Homo sapiens, UniProt P25440).
T5 construct: purchased BPS Bioscience
In words: HTRF bromodomain selectivity profile. It counts as binding. The settings on record: Table 3 selectivity profile. The procedure: as §1, §2

The next assay relates to Jurkat cells. In words: Cell Titer-Glo cell viability (cytotoxicity experiments). In kind it is cell-based. Particulars: Homo sapiens, 72 h incubation at 37° C., read-out: EC50, Jurkat T cells viability. How it is done:
The human leukemia cell line Jurkat (ATCC® TIB-152) was maintained in RPMI-1640 medium supplemented with 10% FBS at 37° C. and 5% CO2. Human osteosarcoma cell line (U2OS, ATCC® HTB-96™) was maintained in DMEM supplemented with 10% FBS at 37° C. and 5% CO2.
In antiproliferative assays, compounds were assayed for their growth inhibiting activity towards the described cancer cell lines using the Cell Titer-Glo Luminescent Cell Viability Assay as described by the manufacturer (Promega Corporation). Briefly, […] cells were plated onto 96 well-plates (white with clear bottom (3610, Corning Costar)) in 100 μL media per well immediately before assay. Compounds were added at different concentrations (ranging from 100 to 0.05 μM) to each well and cell cultures were incubated 37° C. during 72 h. Vehicle (DMSO) was used as control and all compounds were tested in constant percentage of DMSO (1%). After addition of 50 μL Cell Titer-GLO, Luminescence was measured using a Centro luminometer LB960 (Berthold). Dose-response curves were generated and effective dose 50 values (EC50) were calculated using non-linear regression analysis (Graph Pad Prism).
In general terms: ATP-based viability assays read luminescence as a measure of living cells.

The test system of another assay is BET bromodomains. In words: Selectivity profile across BET bromodomains (HTRF). In kind it is binding. The procedure:
as §2

T2 sequence (P25440 344-453 limits assumed): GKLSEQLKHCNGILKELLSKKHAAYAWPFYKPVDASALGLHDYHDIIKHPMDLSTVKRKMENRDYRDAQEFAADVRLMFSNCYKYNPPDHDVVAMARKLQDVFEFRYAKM
T5 sequence (P25440 74-180 limits assumed): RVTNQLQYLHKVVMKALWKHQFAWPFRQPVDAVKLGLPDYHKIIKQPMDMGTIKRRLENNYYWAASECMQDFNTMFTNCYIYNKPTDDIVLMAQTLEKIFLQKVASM

Turning to `CCCCc1c(C)nc2nc(SCc3nc4c(c(=O)[nH]c(=O)n4CCCC)n3CC)nn2c1C` [Compound 26b, 3-Butyl-8-(6-butyl-5,7-dimethyl-[1,2,4]triazolo[1,5-a]pyrimidin-2-ylsulfanylmethyl)-7-ethyl-3,7-dihydro-purine-2,6-dione], the IC50 (commonly the midpoint of a concentration-inhibition curve) was 5 µM at BRD4(BD1) (HTRF, Table 1′, TABLE 2, read-out: BRD4(BD1) IC50); 5 µM on BRD4(BD1) (HTRF, mean ± SD of three experiments, Table 2, read-out: IC50 μM, effect on BRD4(BD1) activity); 5 ± 0.1 µM at BRD4(BD1) (Table 3 selectivity profile, mean ± SD of three experiments, read-out: IC50 (μM) BRD4(BD1)); more than 100 µM on BRD2(BD2); more than 100 µM on BRD4(BD2); more than 100 µM against BRDT(BD1). This molecule registered an IC50 on BRD2(BD1) of 59 ± 2.9 µM. Also, the “LE (Ligand Efficiency)” value at BRD4(BD1) (LE = 1.4(−log(IC50)/N), BRD4(BD1)) was 0.22. Also, the “IC50 (μM) BRD2(BD2)” value at BRD2(BD2) is on record as “no detectable inhibition”. Further, the “IC50 (μM) BRD4(BD2)” value on BRD4(BD2) is “no detectable inhibition”. For the same molecule, the EC50 (in general, the concentration that produces a half-maximal response) in the assay on Jurkat cells turned out to be 27 µM. For the same molecule, the “fold lower IC50 towards BRD4(BD1) as compared to its relatives BD1” value with BET bromodomains (HTRF) was found to be 10 fold. In addition, the “selectivity profile among BET bromodomains” value in the assay with BET bromodomains (in words) is on record as “selective towards BRD4(BD1)”.
